Data reported in patent US20200270216A1, “COMPOSITIONS AND METHODS FOR INHIBITING N-SMASE2” (The Regents of the University of California, priority 2017, published 2020).

Columns and labels:
Assay type in all cases: cell-based
[1] = system: P2-seeded tau biosensor cells; test: EV purification and characterization (immunoblot of exosome markers, nanoparticle tracking analysis); details: 50 μM, 48 hours, nanoparticle tracking analysis
Source text: Extracellular vesicles (EVs) were purified from the cell culture medium using Exo-Quick-TC exosome purification kit (SBI, EXOTC10A-1) according to the manufacturing instructions. Immunoblot analysis of the EV fractions was done by 10-20% Tris-Glycine gel in non-reduced conditions, transferred to PVDF membrane and probed with antibodies against CD63 (ThermoFisher, 10628D), followed by HRP-conjugated secondary antibodies. Chemiluminescent signals were obtained with Super Signal West Femto substrate (Thermo Scientific Pierce 34,095) and detected using a BioSpectrum 600 imaging system and quantified using VisionWorks Version 6.6A software (UVP; Upland, Calif.). […] Inhibition of nSMase2 activity in cell extracts of confluent tau biosensors was confirmed by nSMase2 activity assay analogous to the one described in Example 2.
Our analysis confirmed that nSMase2 inhibitors suppress release of EVs from P2-seeded tau biosensor cells. […] EV samples purified from the same number of donor cells were analyzed per each group. Purified EVs were imaged by transmission electron microscopy (FIG. 5C). Size distribution of particles in the samples were assessed by nanoparticle tracking analysis (FIG. 5D). WB analysis for exosome markers also confirmed decrease in the exosome-specific marker expression (FIG. 5E).
Donor cells were grown in medium with exosome-depleted FBS (ThermoFisher, A2720803) for 48 hours with or without compounds, cell culture medium was collected and EVs purified using ExoQuick-TC kit (SBI biosciences). For quality control, small amounts of purified EVs were fixed on a copper mesh in glutaraldehyde/paraformaldehyde solution, stained with 2% uranyl acetate solution and imaged on a JEOL 100CX electron microscope at 29,000 times magnification. […] Chemiluminescent signals were obtained with Super Signal West Femto substrate (Thermo Scientific Pierce 34095) and detected using a BioSpectrum 600 imaging system and quantified using VisionWorks Version 6.6A software (UVP; Upland, Calif.).

[2] = system: HEK293T Tau RD P301S FRET biosensor cells; test: D+R functional assay: tau seed transfer from P2-seeded donor cells to DiD-labeled recipient cells; details: D+R model, flow cytometry (FIG. 4C)
Protocol: The compounds disclosed herein were further evaluated in the functional assays (“D+R approach”). The assays were based on the use of two cell populations—donor cells (D) and recipient cells (R). Recipients express a specific signal upon accumulation of protein aggregates (for example, FRET signal). The D+R approach can be divided into four steps (FIG. 4A).
In step 1, donor and recipient cells were plated in separation and protein aggregation is induced in the donor cells by using tissue-derived or synthetic proteopathic seeds (“seeding”) or by chemical and/or genetic methods. In step 2, either donor cells or recipient cells were labeled with a lipophilic dye (or by other cell labeling technology) in order to be able to distinguish between donor and recipients cells after trypsinization and re-plating of the donor and recipient cells together in step 3 (R+D). Alternatively, donor and recipient cells were physically divided by a permeable support (for example, Transwell). In any scenario, the cells were connected through the media and they grow for 24-60 hours with or without addition of pre-selected compounds. Efficiency of proteopathic seed transmission from donor cells to recipient cells can be analyzed using microscopy, flow cytometry, or imaging flow cytometry. […] Treatment of the tau biosensor cells with tau seeds lead to RD aggregation, as a result, CFP and YFP molecules come into close proximity and a FRET signal can be generated in the CFP/YFP pair upon illumination. The far-red fluorescent, lipophilic carbocyanine dye, DiD, was used for labeling recipient cells. This dye allowed for distinguishing between the DiD-negative donor and the DiD positive recipient cells without interference with the CFP/YFP FRET signal. The representative images of DiD-negative FRETpositive donor cell seeded with P2-derived tau seeds), DiD-positive FRET-negative recipient cell (DiD-R), and DiD positive FRET-positive recipient cell, which were growing in the presence of P2-D (DiD-R/R+D) are presented at the FIG. 4B. […]

[3] = system: HEK293T Tau RD P301S FRET biosensor cells; test: EV-mediated tau transfer assay
Protocol: For EV (extracellular vesicles)-mediated tau transfer assay, donor cells, transduced with AD-brain derived synaptosomal extracts (P2) or synthetic K18 seeds, were cultured for 48 hours in exosome-free medium with or without indicated concentration of tested compounds or DMSO for control, then medium was collected and EVs were purified using Exo-Quick-TC exosome purification kit (SBI, EXOTC10A-1) according to the manufacturing instructions. Naive recipient cells were plated at density 30,000 cells per well (96-well plates), grown for 12 hour in regular medium and then medium was exchanged to exosome-depleted medium, contained exosomes purified from donor cells (each well of recipients received amount of exosomes purified from one well of donor cells). Recipient cells were cultured in the presence of donor cell exosomes for 60 hrs. EV-mediated transfer assay scheme is presented at the FIG. 5A (right).
HEK293T Tau RD P301S FRET biosensor cells were growing in the Dulbecco's Modified Eagle's medium (DMEM) with higher glucose, 10% FBS, and 1% Penicillin-streptomycin at 37° C./5% CO2. Cells were plated in 10-sm dishes (3 million cells per dish in the regular medium) and grown for 12 hrs. Cells assigned to be donors were transduced with pulled synaptosomal (P2) extracts from AD cases using lipofectamine 2000, according to the published literature with minor modifications. We used 35 μg of pulled AD or control (NL) material per one 10-sm dish (TableS1). Defrosted P2 extracts were sonicated in water bath sonicator for 10 minutes, and diluted with Opti-MEM serum reduced medium to the final volume 200 μL per 10-sm dish. In a separate tube lipofectamine 2000 were combined with Opti-MEM medium, based on 25 μl of lipofectamine and 175 μL OptiMEM medium per each 10-sm dish, and incubated for 10 minutes at room temperature (RT). Each P2 or NL extract mix (200 μl) and prepared lipofectamine 2000 mix (200 μl) were combined and incubated for 20 min at RT. Each 10-sm dish with cell received 400 μl of the final liposomes in the total volume of medium 5 ml per dish. Cultures treated with equal amount of empty liposomes were used as an additional control group. Cells were incubated with liposomes for 20 hrs.
For “D+R” assay recipient cells were labeled with 1,1′-Dioctadecyl-3,3,3′,3′-tetramethylindodicarbocyanine (DiD) according to manufacturer's protocol (ThermoFisher V22887) on day 2. On day 3, donor cells were trypsinized (0.05% Trypsin/EDTA), washed with fresh exosome-free medium contained 10% of exosome-depleted FBS (ThermoFisher, A2720803). DiD-labeled recipient cells were also trypsinized and washed in exosome-free medium. […] FRET signal was detected using LSRII flow cytometer (BD biosciences). […]

O=C(/C=C/c1ccc(/C=C/C(=O)Nc2ccc(C3=NCCN3)cc2)cc1)Nc1ccc(C2=NCCN2)cc1 [GW4869]
release of EVs from P2-seeded donor cells [1]: released less EVs | tau seed transmission from donor cells to recipient cells [2]: restrained tau seed transmission from the donor cells to the recipient cells in a dose-dependent manner | EV-mediated transfer of tau to recipient cells ([3]; P2-seeded donor cells treated at 50 μM, 48 hours): decrease | reduction of EV-mediated transfer of tau seeds to naive recipient cells ([3]; inhibitor treatment of donor cells): 2.6 times
